Measured values from PMC10874388, “Cyclic peptides discriminate BCL-2 and its clinical mutants from BCL-XL by engaging a single-residue discrepancy” (Nature Communications, 2024).
“And” between values parts separate entries of the source, which are not always exact repeats. Equal entries are not always repeated.

Key:
Assay type in all cases: cell-based
MGC-803 cells = test: Cell viability assay (CellTiter-Glo), MGC-803; conditions: for inhibition rate: fraction; for inhibition rate / raw viability reading: replicates
Description: (§1) The cell lines Jurkat (TIB-152), El4 (TIB-39), Daudi (ccl-213), RS4:11 (crl-1873), A549 (ccl-185), HepG2 (hb-8065) and PANC-1 (crl-1469) were purchased from ATCC (American Type Culture Collection), and MGC-803 (C6582) was purchased from Beyotime (https://www.beyotime.com/product/C6582.htm). […] Daudi and RS4:11 cells were cultured in RPMI-1640 medium (HyClone, SH30809.01) and 10% FBS (Gibco, 10099-141), whereas HepG2, MGC-803 and PANC-1 cells were cultured in MDEM (HyClone, SH30243.01). Cells were maintained at 37 °C under a humidified, 5% (v/v) CO2-containing atmosphere.
(§2) Cell viability was measured using CellTiter-Glo® 2.0 Reagent (Promega, G9242). […] After different inhibitors were added into serum-free medium and cultured for 4 h (RS4:11 for 6 h), FBS were supplemented to 10% and then incubated totally for 24 h or 48 h. Finally, the IC50 values were calculated based on measurements using a microplate reader (Thermo, Varioskan LUX). Statistical analysis was performed using software GraphPad Prism 7.0.
(§3) Supplementary Figure 10 Functional mechanism of CPs. a. IC50 values of venetoclax against A549, MGC-803 and PANC-1 cells, measured after 48 h treatment by a CellTiter-Glo assay and calculated using Prism 7.0 by a nonlinear-fit method. Data are presented as mean ± s.d.; n= 6 biological replicates. b. […]
(§4) Glo assay. Each data point represents the mean ± s.d. for 6 biological replicates.
(§5) Supplementary Figure 11 IC50 values of different inhibitors against different cell lines. a-d. Viability of A549 (a), HepG2 (b), MGC-803 (c) and PANC-1 (d) cells treated with various concentrations of ABT-199 (venetoclax), and measured after 48 h by a CellTiter-Glo assay. e, f. Viability of Jurkat cells (e) and Daudi cells (f) treated with […]
(§6) after 48 h by a CellTiter-Glo assay. Each data point represents the mean ± s.d. for 6 biological replicates.
(§7) (1 picture or pasted object on this page, not shown here)

PANC-1 cells = test: Cell viability assay (CellTiter-Glo), PANC-1; conditions: PNAC-1; for inhibition rate: fraction; for inhibition rate / raw viability reading: replicates
Description: as §1, §2, §3, §4, §5, §6, §7

Daudi cells = test: Cell viability assay (CellTiter-Glo), Daudi; conditions: for IC50: 48 h treatment, CellTiter-Glo; for inhibition relative to 0 uM control, replicates / raw viability signal, replicates: listed as ABT199
Procedure, shortened: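 Compounds added in serum-free medium for 4 h (RS4:11: 6 h), then FBS brought to 10% and incubation continued to 24 h or 48 h total at 37 °C, 5% CO2. Viability by CellTiter-Glo 2.0 luminescence; IC50 calculated.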

El4 cells = test: Cell viability assay (CellTiter-Glo), El4; conditions: Mus musculus, 48 h treatment, NO = no inhibition detected
Description: as §1, §2

Jurkat cells [1] = test: Mitochondrial membrane potential (JC-1), flow cytometry and fluorescence microscopy; conditions: Jurkat
Description: For the mitochondrial membrane potential (ΔΨm) analysis, the mitochondrial membrane potential assay kit with JC-1 dye (Beyotime, C2006) was used according to the manufacturer’s protocol. […] The value of ΔΨm was expressed as the ratio of red fluorescence intensity over green fluorescence intensity. After treated with JC-1, fluorescence intensity of Jurkat cells was tested by flow cytometry (BD FACSAria Fusion) and fluorescence microscopy (NIKON Ti-E), respectively. All experiments were performed in triplicate. Statistical analysis was performed using software GraphPad Prism 7.0.

Jurkat cells [2] = test: Cell viability assay (CellTiter-Glo), Jurkat; conditions: for inhibition relative to 0 uM control, replicates / raw viability signal, replicates: listed as ABT199
Description: as §1, §2

Compound: CC1(C)CCC(CN2CCN(c3ccc(C(=O)NS(=O)(=O)c4ccc(NCC5CCOCC5)c([N+](=O)[O-])c4)c(Oc4cnc5[nH]ccc5c4)c3)CC2)=C(c2ccc(Cl)cc2)C1 [venetoclax]
- average (raw viability reading) (MGC-803 cells; ABT199 0.3125 uM): 557867
- inhibition rate (MGC-803 cells; ABT199 0.3125 uM): 0.2027 and 0.1767 and 0.1757 and 0.1522 and 0.1169 and 0.1408
- raw viability reading (MGC-803 cells; ABT199 0.3125 uM): 548000 and 563600 and 587100 and 571200 and 530000 and 547300
- average (raw viability reading) (MGC-803 cells; ABT199 0.625 uM): 500400
- inhibition rate (MGC-803 cells; ABT199 0.625 uM): 0.2793 and 0.2709 and 0.2616 and 0.2533 and 0.2176 and 0.2009
- raw viability reading (MGC-803 cells; ABT199 0.625 uM): 490900 and 496400 and 520100 and 531200 and 479100 and 484700
- average (raw viability reading) (MGC-803 cells; ABT199 1.25 uM): 506350
- inhibition rate (MGC-803 cells; ABT199 1.25 uM): 0.2765 and 0.2507 and 0.2473 and 0.2351 and 0.2002 and 0.2202
- raw viability reading (MGC-803 cells; ABT199 1.25 uM): 500400 and 508500 and 531700 and 518400 and 481000 and 498100
- average (raw viability reading) (MGC-803 cells; ABT199 2.5 uM): 356233
- inhibition rate (MGC-803 cells; ABT199 2.5 uM): 0.4666 and 0.4612 and 0.464 and 0.4702 and 0.4562
- raw viability reading (MGC-803 cells; ABT199 2.5 uM): 356300 and 352200 and 361500 and 354600 and 358200
- average (raw viability reading) (MGC-803 cells; ABT199 5 uM): 295000
- inhibition rate (MGC-803 cells; ABT199 5 uM): 0.6033 and 0.5602 and 0.5626 and 0.5469 and 0.5313 and 0.5332
- raw viability reading (MGC-803 cells; ABT199 5 uM): 290800 and 301200 and 311600 and 310300 and 263700 and 292400
- average (raw viability reading) (MGC-803 cells; ABT199 10 uM): 171300
- inhibition rate (MGC-803 cells; ABT199 10 uM): 0.7623 and 0.7504 and 0.748 and 0.7419 and 0.7262 and 0.725
- raw viability reading (MGC-803 cells; ABT199 10 uM): 167500 and 171600 and 182000 and 182800 and 158000 and 165900
- average (raw viability reading) (MGC-803 cells; ABT199 20 uM): 77771.7
- inhibition rate (MGC-803 cells; ABT199 20 uM): 0.8931 and 0.8865 and 0.8872 and 0.8828 and 0.8769 and 0.8715
- raw viability reading (MGC-803 cells; ABT199 20 uM): 75000 and 77910 and 81820 and 85400 and 71050 and 75450
- average (raw viability reading) (PANC-1 cells; ABT199 0.625 uM): 745567
- inhibition rate (PANC-1 cells; ABT199 0.625 uM): -0.00675 and 0.06232 and 0.04686 and 0.01357 and 0.002949
- raw viability reading (PANC-1 cells; ABT199 0.625 uM): 768100 and 715400 and 727200 and 752600 and 760700 and 749400
- average (raw viability reading) (PANC-1 cells; ABT199 1.25 uM): 742283
- inhibition rate (PANC-1 cells; ABT199 1.25 uM): 0.02549 and 0.03519 and 0.03296 and 0.02484 and -0.003211 and 0.04725
- raw viability reading (PANC-1 cells; ABT199 1.25 uM): 743500 and 736100 and 737800 and 744000 and 765400 and 726900
- average (raw viability reading) (PANC-1 cells; ABT199 2.5 uM): 777083
- inhibition rate (PANC-1 cells; ABT199 2.5 uM): -0.04175 and 0.01278 and 0.00793 and -0.01999 and -0.04882 and -0.0213
- raw viability reading (PANC-1 cells; ABT199 2.5 uM): 794800 and 753200 and 756900 and 778200 and 800200 and 779200
- average (raw viability reading) (PANC-1 cells; ABT199 5 uM): 562150
- inhibition rate (PANC-1 cells; ABT199 5 uM): 0.3097 and 0.2596 and 0.2661 and 0.2453 and 0.2389
- raw viability reading (PANC-1 cells; ABT199 5 uM): 526700 and 564900 and 559900 and 575800 and 580700
- average (raw viability reading) (PANC-1 cells; ABT199 10 uM): 446683
- inhibition rate (PANC-1 cells; ABT199 10 uM): 0.4023 and 0.4323 and 0.4298 and 0.4149 and 0.4042 and 0.4036
- raw viability reading (PANC-1 cells; ABT199 10 uM): 456000 and 433100 and 435000 and 446400 and 454600 and 455000
- average (raw viability reading) (PANC-1 cells; ABT199 20 uM): 384133
- inhibition rate (PANC-1 cells; ABT199 20 uM): 0.5271 and 0.5025 and 0.4945 and 0.4865 and 0.4715 and 0.4971
- raw viability reading (PANC-1 cells; ABT199 20 uM): 360800 and 379600 and 385700 and 391800 and 403200 and 383700
- IC50 (Daudi cells): 9.1 ± 0.4 µM
- inhibition relative to 0 uM control, replicates (Daudi cells; Daudi, 0.78125 uM): -8% and 9% and -10% and 0.517% and -5.68% and 2.67%
- raw viability signal, replicates (Daudi cells; Daudi, 0.78125 uM): 1603 and 1350 and 1637 and 1476 and 1568 and 1444
- inhibition relative to 0 uM control, replicates (Daudi cells; Daudi, 1.5625 uM): 2.61% and -1.71% and 13% and -2.52% and -11% and 4.63%
- raw viability signal, replicates (Daudi cells; Daudi, 1.5625 uM): 1445 and 1509 and 1291 and 1521 and 1645 and 1415
- inhibition relative to 0 uM control, replicates (Daudi cells; Daudi, 3.125 uM): 2% and 16% (2×) and 13% and 9% and 19%
- raw viability signal, replicates (Daudi cells; Daudi, 3.125 uM): 1454 and 1252 and 1287 and 1241 and 1349 and 1200
- inhibition relative to 0 uM control, replicates (Daudi cells; Daudi, 6.25 uM): 29% and 42% and 9% and 30% and 46% and 26%
- raw viability signal, replicates (Daudi cells; Daudi, 6.25 uM): 1056 and 861.7 and 1353 and 1036 and 800.8 and 1094
- inhibition relative to 0 uM control, replicates (Daudi cells; Daudi, 12.5 uM): 77% and 57% and 48% and 71% and 73% and 72%
- raw viability signal, replicates (Daudi cells; Daudi, 12.5 uM): 335.5 and 640.9 and 766.9 and 436.4 and 400.1 and 410.0
- inhibition relative to 0 uM control, replicates (Daudi cells; Daudi, 25 uM): 93% (2×) and 70% and 85% and 88% and 97%
- raw viability signal, replicates (Daudi cells; Daudi, 25 uM): 106.6 and 104.3 and 439.1 and 228.2 and 183.6 and 51.32
- IC50 (Daudi cells; Homo sapiens, Daudi, 48 h): 9.12 µM
- IC50 (El4 cells): 1.7 ± 0.2 µM
- ΔΨm (ratio of red over green fluorescence, Q1/Q3) (Jurkat cells [1]; 4 h treatment, JC-1, flow cytometry, n = 3): 0.1
- Relative ΔΨm by JC-1 fluorescence staining (microscopy) (Jurkat cells [1]; 24 h treatment (Supplementary Fig. 13)): red fluorescence almost disappeared
- inhibition relative to 0 uM control, replicates (Jurkat cells [2]; 0.09375 uM): 3.52% and 1.46% and 6% and 5% (2×) and 2.56%
- raw viability signal, replicates (Jurkat cells [2]; 0.09375 uM): 1920000 and 1961000 and 1868000 and 1890000 and 1939000 and 1891000
- inhibition relative to 0 uM control, replicates (Jurkat cells [2]; 0.1875 uM): 17% and 21% (2×) and 20% (2×)
- raw viability signal, replicates (Jurkat cells [2]; 0.1875 uM): 1613000 and 1643000 and 1579000 and 1582000 and 1598000 and 1590000
- inhibition relative to 0 uM control, replicates (Jurkat cells [2]; 0.375 uM): 36% and 31% and 32% and 27% and 22% and 17%
- raw viability signal, replicates (Jurkat cells [2]; 0.375 uM): 1276000 and 1374000 and 1347000 and 1456000 and 1547000 and 1657000
- inhibition relative to 0 uM control, replicates (Jurkat cells [2]; 0.75 uM): 38% and 41% and 36% and 33% and 32%
- raw viability signal, replicates (Jurkat cells [2]; 0.75 uM): 1124000 and 1225000 and 1165000 and 1278000 and 1326000 and 1356000
- inhibition relative to 0 uM control, replicates (Jurkat cells [2]; 1.5 uM): 52% and 54% (2×) and 53% and 47%
- raw viability signal, replicates (Jurkat cells [2]; 1.5 uM): 903200 and 948100 and 908900 and 906300 and 926500 and 1061000
- inhibition relative to 0 uM control, replicates (Jurkat cells [2]; 3 uM): 86% (3×) and 87% (2×)
- raw viability signal, replicates (Jurkat cells [2]; 3 uM): 248500 and 275900 and 263600 and 270200 and 263000 and 279700
- inhibition at 0.1875 µM (Jurkat cells [2]; Homo sapiens, 0.1875 uM, read-out: inhibition relative to 0 uM control, replicates): 19%
- inhibition at 0.75 µM (Jurkat cells [2]; Homo sapiens, 0.75 uM, read-out: inhibition relative to 0 uM control, replicates): 44%
- inhibition at 1.5 µM (Jurkat cells [2]; Homo sapiens, 1.5 uM, read-out: inhibition relative to 0 uM control, replicates): 55%
- inhibition at 3 µM (Jurkat cells [2]; Homo sapiens, 3 uM, read-out: inhibition relative to 0 uM control, replicates): 88%
- IC50 (Jurkat cells [2]; Homo sapiens, 48 h treatment, CellTiter-Glo): 1.2 ± 0.2 µM
